From patent US20240008473A1, “DEVICE AND METHOD TO DISTRIBUTE AIR TREATMENT SUBSTANCE” (Discovery Purchaser Corporation, priority 2020, published 2024)

Experiments:
[1] = 25° C.; cited from earlier work
[2] = TGA (thermogravimetric analysis) measurements on TFL technical; format: physicochemical
Description: TGA (Thermogravimetric analysis) measurements were performed on TFL technical (release profile measurements done at isothermal (55° C.) and at constant temperature increase ratio (3K/mn)), and from that, it was discovered that release kinetic at “usual” candle melting temp (50-70° C.) would not allow enough TFL release to get expected efficacy, and that TFL release is not linear. It was determined as well that release onset for TFL is around 100° C. and far higher release ratio occurs at higher temperatures. The calculated estimated ideal temperature for TFL, for outdoor use, from the TGA measurement would be around 150° C.
TGA (Thermal Gravimetric Analysis) for TFL was run, which allows characterization of the release profile of an active ingredient as a function of the temperature. […] Thus, TFL release was pretty low in the range of the “usual candle wax melting temperature”, and it was not be possible to get the needed release rate. (which is the reason why TFL was mainly burnt before being released when incorporated directly into a candle). At such a temperature range, it would hardly possible (considering the potential TFL loading into the candle and candle size) to reach a release above 2-3 mg/h which is far below our 20-25 mg/h needed for outdoor use. • Based on the TGA measurement, it can be seen that to reach the desired 25 mg/h release rate for TFL, the pod temp should be >130-140° C.
(before a typical flame temperature). […] This amount is much lower than the desired 25 mg/h release rate.

[3] = 15 mg flakes, temperature ramp 3K/min, continuous N2-flow

## C#CCN1CC(=O)N(COC(=O)[C@@H]2C(C=C(C)C)C2(C)C)C1=O (mixture of isomers) [Imiprothrin]
[1]
  Vapor pressure: 1.85 mPa @25 °C

## C#CC(OC(=O)C1C(C=C(C)C)C1(C)C)/C(C)=C/CC (centres unmarked) [Empenthrin]
[1]
  Vapor pressure: 15.4 mPa @25 °C

## C/C=C/C1C(C(=O)OCc2c(F)c(F)c(COC)c(F)c2F)C1(C)C (centres unmarked) [Metofluthrin]
[1]
  Vapor pressure: 1.96 mPa @25 °C

## C#CCC1=C(C)C(OC(=O)C2C(C=C(C)C)C2(C)C)CC1=O (centres unmarked) [Prallethrin]
[1]
  Vapor pressure: 0.6 mPa @25 °C

## CC=CC1C(C(=O)OCc2c(F)c(F)c(C)c(F)c2F)C1(C)C (centres unmarked) [Profluthrin]
[1]
  Vapor pressure: 10.3 mPa @25 °C

## CC1(C)[C@H](C=C(Cl)Cl)[C@H]1C(=O)OCc1c(F)c(F)cc(F)c1F [TFL, Transfluthrin]
[2]; [3]
  complete evaporation: 255 °C
  onset of evaporation: around 100 °C
[2]; 50-80° C., TFL loaded into candle
  reachable release at usual candle wax melting temperature: 2 to 3 mg/h
[2]; TGA on TFL technical, isothermal (55° C.) and 3K/mn ramp
  release onset for TFL: around 100 °C
[2]; TGA, FIG. 9A
  active ingredient release below 100-110° C.: very little release
[2]; at 55° C. candle melting temperature, TGA conditions
  TFL evaporation rate: < 0.03 mg/h
[2]; based on the TGA measurement
  pod temp to reach the desired 25 mg/h release rate: 130-140 °C
[1]
  Vapor pressure: 2 mPa @25 °C

## CC(C)=CC1C(C(=O)OCN2C(=O)C3=C(CCCC3)C2=O)C1(C)C (centres unmarked) [Tetramethrin]
[1]
  Vapor pressure: 2.11 mPa @25 °C
